What is called TD50 is the dose at which the toxic effect under study appears in half of the subjects.

Calls of active or inactive are those of the source. How the calls were made is not given here.

The data set has as its system rodent lifetime carcinogenesis bioassay, tumor incidence TD50. In words: carcinogenic potency in animals, long-term in vivo studies, CPDB compilation (AID 1745844).

For the molecule `CCN(CC)C(=S)S[Se](SC(=S)N(CC)CC)(SC(=S)N(CC)CC)SC(=S)N(CC)CC`, the TD50 runs as follows: (mouse, strain B6AKF1, females, oral dosing, site: any site (literature study), lesion: several types, types named in the paper, dosed 81 weeks, study length 81 weeks) 10.5 mg/kg/day; (mouse, strain B6AKF1, males, oral dosing, site: any site (literature study), lesion: several types, types named in the paper, dosed 81 weeks, study length 81 weeks) 8.45 mg/kg/day; (mouse, strain B6AKF1, males, oral dosing, site: liver, lesion: hepatoma, dosed 81 weeks, study length 81 weeks) 10.2 mg/kg/day; (mouse, strain B6AKF1, males, oral dosing, site: lung, lesion: adenoma, dosed 81 weeks, study length 81 weeks) 18.4 mg/kg/day; (mouse, strain B6C3F1, females, oral dosing, site: any site (literature study), lesion: several types, types named in the paper, dosed 81 weeks, study length 81 weeks) 3.46 mg/kg/day; (mouse, strain B6C3F1, females, oral dosing, site: liver, lesion: hepatoma, dosed 81 weeks, study length 81 weeks) 7.76 mg/kg/day. The TD50 was 0.638 mg/kg/day (mouse, strain B6C3F1, males, oral dosing, site: any site (literature study), lesion: several types, types named in the paper, dosed 81 weeks, study length 81 weeks); 1.49 mg/kg/day (mouse, strain B6C3F1, males, oral dosing, site: liver, lesion: hepatoma, dosed 81 weeks, study length 81 weeks); 1.28 mg/kg/day (mouse, strain B6C3F1, males, oral dosing, site: liver, lesion: several types, types named in the paper, dosed 81 weeks, study length 81 weeks).
Turning to `NC(=O)c1ccncc1`, the TD50 (mouse, strain Swiss albino, females, in drinking water, site: liver, lesion: hepatoma, dosed 121 weeks, study length 121 weeks) is 21300 mg/kg/day (inactive). The carcinogen call runs as follows: (mouse, strain Swiss albino, females, in drinking water, site: lung, lesion: several types, types named in the paper, dosed 121 weeks, study length 121 weeks) “negative (inactive)”; (mouse, strain Swiss albino, males, in drinking water, site: lung, lesion: several types, types named in the paper, dosed 117 weeks, study length 117 weeks) “negative (inactive)”.
`OCCBr`: the TD50 runs as follows: (mouse, strain B6C3F1, females, in drinking water, site: any site (literature study), lesion: several types, types named in the paper, dosed 79 weeks, study length 79 weeks) 73.2 mg/kg/day; (mouse, strain B6C3F1, females, in drinking water, site: forestomach, lesion: squamous-cell papilloma, dosed 79 weeks, study length 79 weeks) 69.7 mg/kg/day; (mouse, strain B6C3F1, females, in drinking water, site: liver, lesion: hemangioma, dosed 79 weeks, study length 79 weeks) 800 mg/kg/day; (mouse, strain B6C3F1, females, in drinking water, site: lung, lesion: papillary tumor, dosed 79 weeks, study length 79 weeks) 1890 mg/kg/day; (mouse, strain B6C3F1, males, in drinking water, site: any site (literature study), lesion: several types, types named in the paper, dosed 78 weeks, study length 78 weeks) 86.6 mg/kg/day; (mouse, strain B6C3F1, males, in drinking water, site: forestomach, lesion: squamous-cell papilloma, dosed 78 weeks, study length 78 weeks) 83.9 mg/kg/day.
Consider `Cn1cc(OCC(O)CNC(C)(C)C)c2ccccc2c1=O` (configuration not stated), for which the carcinogen call runs as follows: (mouse, strain Charles River CD1, females, by gavage, site: any site (literature study), lesion: several types, types named in the paper, dosed 80 weeks, study length 80 weeks) “negative (inactive)”; (mouse, strain Charles River CD1, females, by gavage, site: liver, lesion: one or several types, types not named, dosed 80 weeks, study length 80 weeks) “negative (inactive)”; (mouse, strain Charles River CD1, females, by gavage, site: lung, lesion: adenocarcinoma, dosed 80 weeks, study length 80 weeks) “negative (inactive)”; (mouse, strain Charles River CD1, males, by gavage, site: liver, lesion: hepatocellular carcinoma, dosed 80 weeks, study length 80 weeks) “negative (inactive)”; (rat, strain Charles River CD (Sprague-Dawley), females, by gavage, site: liver, lesion: hepatocellular adenoma, dosed 104 weeks, study length 104 weeks) “negative (inactive)”; (rat, strain Charles River CD (Sprague-Dawley), males, by gavage, site: liver, lesion: hepatocellular carcinoma, dosed 104 weeks, study length 104 weeks) “negative (inactive)”. The TD50 by setting is: (mouse, strain Charles River CD1, females, by gavage, site: lung, lesion: adenoma, dosed 80 weeks, study length 80 weeks) 843 mg/kg/day (inactive); (mouse, strain Charles River CD1, males, by gavage, site: any site (literature study), lesion: several types, types named in the paper, dosed 80 weeks, study length 80 weeks) 256 mg/kg/day (inactive); (mouse, strain Charles River CD1, males, by gavage, site: liver, lesion: hepatocellular adenoma, dosed 80 weeks, study length 80 weeks) 131 mg/kg/day (inactive); (mouse, strain Charles River CD1, males, by gavage, site: lung, lesion: adenocarcinoma, dosed 80 weeks, study length 80 weeks) 99.2 mg/kg/day (inactive); (mouse, strain Charles River CD1, males, by gavage, site: lung, lesion: adenoma, dosed 80 weeks, study length 80 weeks) 7200 mg/kg/day (inactive); (rat, strain Charles River CD (Sprague-Dawley), females, by gavage, site: any site (literature study), lesion: several types, types named in the paper, dosed 104 weeks, study length 104 weeks) 40 mg/kg/day (inactive). The TD50 reads like this: (rat, strain Charles River CD (Sprague-Dawley), males, by gavage, site: any site (literature study), lesion: several types, types named in the paper, dosed 104 weeks, study length 104 weeks) 128 mg/kg/day (inactive); (rat, strain Charles River CD (Sprague-Dawley), males, by gavage, site: liver, lesion: hepatocellular adenoma, dosed 104 weeks, study length 104 weeks) 384 mg/kg/day (inactive).
